Here are results for two molecules from paper PMC6707142, “Orthogonal monoterpenoid biosynthesis in yeast constructed on an isomeric substrate” (Nature Communications, 2019).

One experiment relates to T1, SeCamS.
T1 construct: 6xHis-tagged, E. coli BL21(DE3), Ni-NTA purified
Put plainly: GC-MS of hexane-extracted monoterpene products. The class given is biochemical, Solanum elaeagnifolium. As to conditions: 20 mM MOPS pH 7.0, 20 mM MgCl2, 0.02 mM MnCl2, 30 °C, 1 h; read-out: KM^app. From the text:
GC-MS of hexane-extracted monoterpene products on SeCamS

A further experiment concerns the target T2, PtPinS (Pinus taeda, UniProt Q84KL3).
T2 construct: gene PT30; lacking the transit peptide, 6xHis-tagged, E. coli BL21(DE3), Ni-NTA purified
T2 sequence (Q84KL3 49-628): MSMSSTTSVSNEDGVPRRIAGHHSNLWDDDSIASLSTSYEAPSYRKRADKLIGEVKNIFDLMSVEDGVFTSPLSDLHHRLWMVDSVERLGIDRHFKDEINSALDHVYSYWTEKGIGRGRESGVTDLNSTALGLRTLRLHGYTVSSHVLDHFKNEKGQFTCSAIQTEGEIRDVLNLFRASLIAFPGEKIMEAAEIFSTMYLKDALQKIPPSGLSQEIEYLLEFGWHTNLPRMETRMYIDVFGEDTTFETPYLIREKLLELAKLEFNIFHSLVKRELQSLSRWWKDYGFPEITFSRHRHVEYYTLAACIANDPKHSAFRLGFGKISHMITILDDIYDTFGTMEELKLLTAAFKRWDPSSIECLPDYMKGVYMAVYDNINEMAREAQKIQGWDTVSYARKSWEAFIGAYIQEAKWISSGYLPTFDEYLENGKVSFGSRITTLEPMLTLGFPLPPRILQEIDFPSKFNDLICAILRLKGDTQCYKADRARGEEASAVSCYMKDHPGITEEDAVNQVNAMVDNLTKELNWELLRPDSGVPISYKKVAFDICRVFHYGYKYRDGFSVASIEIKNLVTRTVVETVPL
The experiment in a line: GC-MS product analysis in vitro. Particulars: 20 mM MOPS pH 7.0, 20 mM MgCl2, 0.02 mM MnCl2, 30 °C, 1 h. The class given is biochemical.

For a further experiment, the target named is T3, SpSabS (Salvia pomifera, UniProt A6XH06).
T3 construct: gene SabS1; 6xHis-tagged, E. coli BL21(DE3), Ni-NTA purified
T3 sequence (A6XH06 29-581): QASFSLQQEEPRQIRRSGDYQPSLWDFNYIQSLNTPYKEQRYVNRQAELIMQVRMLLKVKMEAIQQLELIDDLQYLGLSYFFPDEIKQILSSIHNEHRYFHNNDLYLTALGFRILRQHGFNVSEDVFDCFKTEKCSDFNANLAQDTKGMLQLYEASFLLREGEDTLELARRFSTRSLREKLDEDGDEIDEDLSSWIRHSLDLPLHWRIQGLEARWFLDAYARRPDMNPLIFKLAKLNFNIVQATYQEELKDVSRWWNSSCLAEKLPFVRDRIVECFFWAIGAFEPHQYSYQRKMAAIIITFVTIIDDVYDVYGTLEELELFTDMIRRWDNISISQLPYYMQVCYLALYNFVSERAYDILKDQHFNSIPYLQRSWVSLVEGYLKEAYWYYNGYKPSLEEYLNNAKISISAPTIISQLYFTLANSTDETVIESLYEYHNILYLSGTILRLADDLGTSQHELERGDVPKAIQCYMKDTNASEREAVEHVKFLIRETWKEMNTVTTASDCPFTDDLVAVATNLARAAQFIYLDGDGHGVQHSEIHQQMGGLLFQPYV
Put plainly: GC-MS product analysis in vitro. The class given is biochemical. Particulars: 20 mM MOPS pH 7.0, 20 mM MgCl2, 0.02 mM MnCl2, 30 °C, 1 h.

As to `CC(C)=CCC/C(C)=C/COP(=O)(O)OP(=O)(O)O` [GPP], the Km in the experiment on SeCamS came out at 18.6 ± 2.77 µM.

As for `CC(C)=CCC/C(C)=C\COP(=O)(O)OP(=O)(O)O` [NPP], the “GC-MS product analysis in vitro” value at PtPinS and on SpSabS was “able to utilize NPP in in vitro assays with bacterially expressed enzymes” throughout. The Km in the experiment on SeCamS was 107 ± 12.5 µM.
